According to ChEMBL document CHEMBL5291721, “A preclinical secondary pharmacology resource illuminates target-adverse drug reaction associations of marketed drugs” (Nat Commun, 2023):

Key:
Histamine H3 receptor = Histamine H3 receptor (Homo sapiens, UniProt Q9Y5N1)
Vasopressin V1a receptor = Vasopressin V1a receptor (Homo sapiens, UniProt P37288)
[1] = molecular target: Voltage-gated inwardly rectifying potassium channel KCNH2 (Homo sapiens, UniProt Q12809); assay type: functional; conditions: read-out: AC50
D(3) dopamine receptor = D(3) dopamine receptor (Homo sapiens, UniProt P35462)
[2] = molecular target: T1, Equilibrative nucleoside transporter 1 (Homo sapiens, UniProt Q99808)
T1 sequence (Q99808 whole entry): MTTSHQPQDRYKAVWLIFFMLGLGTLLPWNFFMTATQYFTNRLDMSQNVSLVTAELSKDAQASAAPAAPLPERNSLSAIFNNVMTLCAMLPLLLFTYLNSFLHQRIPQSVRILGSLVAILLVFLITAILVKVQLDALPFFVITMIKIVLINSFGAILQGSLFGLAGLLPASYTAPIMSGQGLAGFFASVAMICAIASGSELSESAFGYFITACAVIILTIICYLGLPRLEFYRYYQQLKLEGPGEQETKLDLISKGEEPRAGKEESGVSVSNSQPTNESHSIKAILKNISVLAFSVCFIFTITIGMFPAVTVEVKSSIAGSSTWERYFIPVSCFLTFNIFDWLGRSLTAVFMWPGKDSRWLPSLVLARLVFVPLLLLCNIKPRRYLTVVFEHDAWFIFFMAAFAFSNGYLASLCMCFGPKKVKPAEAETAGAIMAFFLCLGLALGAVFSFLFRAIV

[3] = molecular target: Gamma-aminobutyric acid receptor subunit alpha-1 (Rattus norvegicus, UniProt P62813); assay type: functional
[4] = molecular target: T2, Alpha-2A adrenergic receptor (Homo sapiens, UniProt P08913); assay type: functional, cell-based
T2 sequence (P08913 whole entry): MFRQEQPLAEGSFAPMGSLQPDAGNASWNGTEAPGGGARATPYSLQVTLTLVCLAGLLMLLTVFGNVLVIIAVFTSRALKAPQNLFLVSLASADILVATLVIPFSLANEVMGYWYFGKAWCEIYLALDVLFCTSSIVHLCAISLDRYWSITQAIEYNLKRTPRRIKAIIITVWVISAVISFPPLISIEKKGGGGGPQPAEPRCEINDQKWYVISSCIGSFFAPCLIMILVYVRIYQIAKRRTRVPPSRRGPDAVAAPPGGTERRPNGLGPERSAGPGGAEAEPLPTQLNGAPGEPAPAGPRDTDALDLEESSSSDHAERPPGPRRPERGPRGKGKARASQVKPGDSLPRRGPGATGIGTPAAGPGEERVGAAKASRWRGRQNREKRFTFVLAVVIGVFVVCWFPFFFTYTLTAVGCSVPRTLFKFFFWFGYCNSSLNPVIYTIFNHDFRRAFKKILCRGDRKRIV

[5] = molecular target: T3, 5-hydroxytryptamine receptor 3A (Homo sapiens, UniProt P46098); assay type: functional
T3 sequence (P46098 whole entry): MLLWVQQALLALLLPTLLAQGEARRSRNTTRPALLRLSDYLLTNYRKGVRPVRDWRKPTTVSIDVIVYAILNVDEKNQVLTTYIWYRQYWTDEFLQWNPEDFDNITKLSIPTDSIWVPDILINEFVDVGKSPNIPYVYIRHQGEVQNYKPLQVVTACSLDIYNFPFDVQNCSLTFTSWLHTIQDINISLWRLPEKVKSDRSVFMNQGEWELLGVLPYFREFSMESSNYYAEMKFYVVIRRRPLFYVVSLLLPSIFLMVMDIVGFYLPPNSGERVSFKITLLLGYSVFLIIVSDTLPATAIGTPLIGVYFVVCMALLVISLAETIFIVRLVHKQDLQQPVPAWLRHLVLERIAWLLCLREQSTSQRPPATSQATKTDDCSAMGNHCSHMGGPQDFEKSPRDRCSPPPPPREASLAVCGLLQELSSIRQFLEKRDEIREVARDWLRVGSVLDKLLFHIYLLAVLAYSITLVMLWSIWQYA

[6] = molecular target: T4, 5-hydroxytryptamine receptor 1A (Homo sapiens, UniProt P08908); assay type: functional, cell-based
T4 sequence (P08908 whole entry): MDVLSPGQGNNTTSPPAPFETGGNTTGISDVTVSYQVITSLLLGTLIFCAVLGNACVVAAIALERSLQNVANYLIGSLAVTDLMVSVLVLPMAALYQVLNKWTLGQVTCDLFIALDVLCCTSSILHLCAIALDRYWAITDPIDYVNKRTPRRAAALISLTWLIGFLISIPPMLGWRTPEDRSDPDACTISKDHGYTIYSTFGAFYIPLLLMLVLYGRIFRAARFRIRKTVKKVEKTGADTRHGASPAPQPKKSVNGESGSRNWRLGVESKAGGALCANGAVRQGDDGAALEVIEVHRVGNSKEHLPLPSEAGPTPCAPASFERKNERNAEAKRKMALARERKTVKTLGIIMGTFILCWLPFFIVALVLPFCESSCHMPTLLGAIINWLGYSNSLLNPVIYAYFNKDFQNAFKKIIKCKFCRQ

Endothelin-1 receptor = molecular target: T5, Endothelin-1 receptor (Homo sapiens, UniProt P25101)
T5 sequence (P25101 whole entry): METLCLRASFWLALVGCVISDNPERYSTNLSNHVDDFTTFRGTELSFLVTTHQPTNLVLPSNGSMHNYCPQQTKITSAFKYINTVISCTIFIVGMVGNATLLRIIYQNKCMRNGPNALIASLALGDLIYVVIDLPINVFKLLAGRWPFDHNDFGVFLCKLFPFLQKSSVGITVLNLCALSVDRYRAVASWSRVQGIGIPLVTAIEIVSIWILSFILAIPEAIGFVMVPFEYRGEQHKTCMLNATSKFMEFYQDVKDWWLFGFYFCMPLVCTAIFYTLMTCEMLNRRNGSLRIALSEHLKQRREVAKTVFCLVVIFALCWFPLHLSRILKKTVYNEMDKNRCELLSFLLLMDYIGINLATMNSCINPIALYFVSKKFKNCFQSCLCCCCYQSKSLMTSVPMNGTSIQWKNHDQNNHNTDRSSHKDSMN

D(1A) dopamine receptor = D(1A) dopamine receptor (Homo sapiens, UniProt P21728); assay type: functional, cell-based
Mu-type opioid receptor = Mu-type opioid receptor (Homo sapiens, UniProt P35372); experiment: biochemical; assay type: functional
Further: assay procedure not described here.

Sequence of Gamma-aminobutyric acid receptor subunit alpha-1 (P62813 whole entry): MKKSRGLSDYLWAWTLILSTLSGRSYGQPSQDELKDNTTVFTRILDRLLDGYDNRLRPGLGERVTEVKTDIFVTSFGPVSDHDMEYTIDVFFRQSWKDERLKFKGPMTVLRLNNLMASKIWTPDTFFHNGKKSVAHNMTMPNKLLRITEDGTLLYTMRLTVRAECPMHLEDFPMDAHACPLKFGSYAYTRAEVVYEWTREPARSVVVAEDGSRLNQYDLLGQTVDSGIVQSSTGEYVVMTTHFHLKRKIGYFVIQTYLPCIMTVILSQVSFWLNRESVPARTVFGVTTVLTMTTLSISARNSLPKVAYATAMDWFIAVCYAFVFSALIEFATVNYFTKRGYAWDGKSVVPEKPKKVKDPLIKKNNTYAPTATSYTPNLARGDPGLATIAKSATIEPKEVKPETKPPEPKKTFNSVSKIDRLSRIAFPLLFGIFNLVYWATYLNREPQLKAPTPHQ
Sequence of Vasopressin V1a receptor (P37288 whole entry): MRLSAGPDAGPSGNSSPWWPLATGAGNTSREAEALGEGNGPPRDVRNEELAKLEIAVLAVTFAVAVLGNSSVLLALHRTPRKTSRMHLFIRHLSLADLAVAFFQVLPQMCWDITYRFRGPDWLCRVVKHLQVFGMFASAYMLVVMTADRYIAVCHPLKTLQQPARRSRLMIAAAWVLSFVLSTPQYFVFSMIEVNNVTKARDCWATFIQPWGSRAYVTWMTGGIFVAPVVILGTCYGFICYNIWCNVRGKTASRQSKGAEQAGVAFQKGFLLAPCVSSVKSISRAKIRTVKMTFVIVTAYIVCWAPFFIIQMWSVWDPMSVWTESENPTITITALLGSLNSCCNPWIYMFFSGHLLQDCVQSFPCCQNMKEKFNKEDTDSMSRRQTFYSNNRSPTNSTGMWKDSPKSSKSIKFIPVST
Sequence of D(1A) dopamine receptor (P21728 whole entry): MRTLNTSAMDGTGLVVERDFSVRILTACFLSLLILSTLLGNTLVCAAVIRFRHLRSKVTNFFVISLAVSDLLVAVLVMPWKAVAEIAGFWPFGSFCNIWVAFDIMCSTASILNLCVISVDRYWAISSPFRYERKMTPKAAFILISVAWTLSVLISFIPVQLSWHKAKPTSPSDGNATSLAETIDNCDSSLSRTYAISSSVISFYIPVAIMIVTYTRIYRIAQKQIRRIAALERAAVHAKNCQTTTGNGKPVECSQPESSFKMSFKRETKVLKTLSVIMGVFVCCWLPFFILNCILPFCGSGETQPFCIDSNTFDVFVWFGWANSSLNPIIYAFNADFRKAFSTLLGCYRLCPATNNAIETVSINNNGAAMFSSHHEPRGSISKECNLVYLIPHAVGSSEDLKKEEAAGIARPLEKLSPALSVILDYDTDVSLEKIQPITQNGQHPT
Sequence of Mu-type opioid receptor (P35372 whole entry): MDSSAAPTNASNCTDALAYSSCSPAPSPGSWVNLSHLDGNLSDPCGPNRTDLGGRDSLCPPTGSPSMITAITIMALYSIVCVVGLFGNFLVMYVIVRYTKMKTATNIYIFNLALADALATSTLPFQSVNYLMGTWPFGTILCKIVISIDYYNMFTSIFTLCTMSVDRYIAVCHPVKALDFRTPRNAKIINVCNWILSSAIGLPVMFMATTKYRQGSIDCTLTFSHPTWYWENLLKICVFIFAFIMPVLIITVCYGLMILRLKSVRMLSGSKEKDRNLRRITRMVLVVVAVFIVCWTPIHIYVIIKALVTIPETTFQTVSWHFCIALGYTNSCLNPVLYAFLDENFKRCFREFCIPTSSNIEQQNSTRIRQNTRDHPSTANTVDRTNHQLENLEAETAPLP
Sequence of Voltage-gated inwardly rectifying potassium channel KCNH2 (Q12809 whole entry): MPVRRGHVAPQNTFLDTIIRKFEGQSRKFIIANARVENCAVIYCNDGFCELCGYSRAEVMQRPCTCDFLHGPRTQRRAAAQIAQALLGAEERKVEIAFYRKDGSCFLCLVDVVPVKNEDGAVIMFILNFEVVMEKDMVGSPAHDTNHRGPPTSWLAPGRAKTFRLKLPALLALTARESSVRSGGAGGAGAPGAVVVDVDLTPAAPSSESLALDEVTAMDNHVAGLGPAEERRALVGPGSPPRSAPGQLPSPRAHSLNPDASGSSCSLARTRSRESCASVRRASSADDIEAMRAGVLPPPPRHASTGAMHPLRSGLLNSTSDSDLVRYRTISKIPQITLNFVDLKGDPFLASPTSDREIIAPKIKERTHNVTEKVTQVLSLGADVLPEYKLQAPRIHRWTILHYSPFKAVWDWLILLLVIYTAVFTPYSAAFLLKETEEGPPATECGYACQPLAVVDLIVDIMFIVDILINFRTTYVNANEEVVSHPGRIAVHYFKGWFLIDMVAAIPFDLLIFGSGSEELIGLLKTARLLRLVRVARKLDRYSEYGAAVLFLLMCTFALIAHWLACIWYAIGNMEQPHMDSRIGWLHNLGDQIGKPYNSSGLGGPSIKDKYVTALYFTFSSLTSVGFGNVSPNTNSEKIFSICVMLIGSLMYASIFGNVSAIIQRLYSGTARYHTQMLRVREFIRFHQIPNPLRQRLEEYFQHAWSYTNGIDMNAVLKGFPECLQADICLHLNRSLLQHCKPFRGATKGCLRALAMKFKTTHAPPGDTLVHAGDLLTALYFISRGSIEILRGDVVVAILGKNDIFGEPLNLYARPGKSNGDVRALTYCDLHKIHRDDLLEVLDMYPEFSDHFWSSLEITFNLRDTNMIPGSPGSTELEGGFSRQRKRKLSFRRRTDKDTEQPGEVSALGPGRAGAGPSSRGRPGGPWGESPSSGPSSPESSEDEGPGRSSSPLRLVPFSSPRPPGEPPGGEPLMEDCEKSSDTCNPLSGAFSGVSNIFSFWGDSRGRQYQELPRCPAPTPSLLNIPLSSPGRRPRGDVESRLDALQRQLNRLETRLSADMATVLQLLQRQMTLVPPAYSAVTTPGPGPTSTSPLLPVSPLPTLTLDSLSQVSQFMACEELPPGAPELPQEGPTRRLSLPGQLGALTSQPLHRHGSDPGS
Sequence of D(3) dopamine receptor (P35462 whole entry): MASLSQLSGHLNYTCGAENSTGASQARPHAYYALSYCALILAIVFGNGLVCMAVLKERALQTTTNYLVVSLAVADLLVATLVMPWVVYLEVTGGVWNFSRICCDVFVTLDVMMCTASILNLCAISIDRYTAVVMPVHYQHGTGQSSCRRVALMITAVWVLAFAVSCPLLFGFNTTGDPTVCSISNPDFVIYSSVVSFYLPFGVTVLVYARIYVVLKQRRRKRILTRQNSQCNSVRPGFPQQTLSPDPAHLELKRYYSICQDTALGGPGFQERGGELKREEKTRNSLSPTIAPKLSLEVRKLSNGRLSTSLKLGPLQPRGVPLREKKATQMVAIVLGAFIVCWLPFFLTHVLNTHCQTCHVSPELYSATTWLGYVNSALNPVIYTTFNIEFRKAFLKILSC
Sequence of Histamine H3 receptor (Q9Y5N1 whole entry): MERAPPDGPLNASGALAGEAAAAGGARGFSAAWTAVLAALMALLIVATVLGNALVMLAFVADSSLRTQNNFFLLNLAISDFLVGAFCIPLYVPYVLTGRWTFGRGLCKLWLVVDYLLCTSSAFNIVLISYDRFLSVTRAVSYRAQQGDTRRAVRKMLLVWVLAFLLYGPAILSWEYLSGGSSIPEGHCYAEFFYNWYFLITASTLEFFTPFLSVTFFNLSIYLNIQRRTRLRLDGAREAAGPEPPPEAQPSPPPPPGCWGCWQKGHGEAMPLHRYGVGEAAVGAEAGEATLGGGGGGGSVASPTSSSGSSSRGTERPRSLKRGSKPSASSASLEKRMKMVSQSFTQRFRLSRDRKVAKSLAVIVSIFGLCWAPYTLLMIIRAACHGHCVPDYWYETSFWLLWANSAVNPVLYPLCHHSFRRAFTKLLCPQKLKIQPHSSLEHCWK

Structure (SMILES)	AC50 (Histamine H3 receptor) [µM]	AC50 (Vasopressin V1a receptor) [µM]	AC50 [1] [µM]	AC50 (D(3) dopamine receptor) [µM]	AC50 [2] [µM]	AC50 [3] [µM]	AC50 [4] [µM]	AC50 [5] [µM]	AC50 [6] [µM]	AC50 (Endothelin-1 receptor) [µM]	AC50 (D(1A) dopamine receptor) [µM]	AC50 (Mu-type opioid receptor) [µM]
CCOC(=O)NNc1ccc(N(CC)CC(C)O)nn1 (configuration not stated) [CADRALAZINE]	> 30	> 30	> 30	> 30	> 30	> 30	> 30	> 30	27	> 30	> 30	> 30
CO[C@@]1(NC(=O)Cc2cccs2)C(=O)N2C(C(=O)O)=C(COC(N)=O)CS[C@@H]21 [CEFOXITIN]	> 30	> 30	> 30	> 30	> 30	> 30	> 30	> 30	> 30	> 30	> 30	> 30
CCN(CC)CCOC(=O)c1ccc(N)cc1Cl [CHLOROPROCAINE]	4	> 30	11	> 30	> 30	> 30	> 30	11	> 30	> 30	> 30	> 30
O=C(O)c1ccccc1Nc1cccc(C(F)(F)F)c1 [FLUFENAMIC ACID]	> 10	> 30	> 30	3.5	> 30	> 10	> 30	> 30	15	> 30	> 10	> 30
O=C(O)c1ccccc1OP(=O)(O)O [FOSFOSAL]	> 30	> 30	> 30	> 30	> 30	> 30	> 30	> 30	> 30	> 30	> 30	> 30
CCCCCCOC(=O)CCC(=O)CN [HEXAMINOLEVULINATE]	> 30	> 30	> 30	> 30	> 30	> 30	> 30	> 30	> 30	> 30	> 30	> 30
Cc1ccc(NC(=O)C2(c3ccc4c(c3)OC(F)(F)O4)CC2)nc1-c1cccc(C(=O)O)c1 [LUMACAFTOR]	> 30	> 30	> 30	> 30	> 30	> 30	> 30	> 30	> 30	> 30	> 30	> 30
Cc1ccc(=O)n(-c2ccccc2)c1 [PIRFENIDONE]	> 30	> 30	> 30	> 30	> 30	> 30	> 30	> 30	> 30	> 30	> 30	> 30
CC(NCCc1ccc(O)cc1)C(O)c1ccc(O)cc1 (configuration not stated) [RITODRINE]	> 30	> 30	> 30	> 30	> 30	> 30	> 30	> 30	> 10	> 30	> 10	8.1
CC(C)CC(N(C)C)C1(c2ccc(Cl)cc2)CCC1 (configuration not stated) [SIBUTRAMINE]	> 10	> 10	8.34	> 10	> 30	> 10	30	> 30	> 10	> 30	> 10	> 30
[H]/N=C(/N)N[C@H]1[C@H](O)[C@@H](O)[C@H](O[C@@H]2O[C@@H](C)[C@](O)(C=O)[C@H]2O[C@@H]2O[C@@H](CO)[C@H](O)[C@@H](O)[C@@H]2NC)[C@@H](N/C(N)=N\[H])[C@@H]1O [STREPTOMYCIN]	> 30	> 30	> 30	> 30	> 30	> 30	> 30	> 30	> 10	> 30	> 30	> 30
